Test systems include CCRF-CEM; RXF 393; KM12; K562; HL-60; HOP-62; SW-620; CAKI-1; SN12C; LOX IMVI; SNB-19; OVCAR-8; SF-295; HCT-116; NCI-H226; SK-MEL-28; SR.
Holding throughout (assay): inhibition of tumour cell growth, NCI panel, 48 h

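Exposure lasted 48 hours, with cells grown in 96-well plates and compounds tested at five concentrations. Abbreviation: GI50, concentration required for 50% inhibition of growth.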 The source made the active and inactive calls. No stated cut-off is given here; in the data, active = GI50 up to about 1.1 µM and inactive = higher.

As for `Cc1nc2c(o1)/C(=N\c1ccccc1)c1ccccc1C2=O`, the GI50 in the assay on CCRF-CEM is 10.9 µM (inactive); in the assay on RXF 393, 20.2 µM (inactive); in the assay on KM12 it was 15.1 µM (inactive); in the assay on K562, 5.7 µM (inactive); in the assay with HL-60, 3.3 µM (inactive); with HOP-62, 13.5 µM (inactive). The GI50 in the assay with SW-620 was 10.7 µM (inactive); with CAKI-1, 18.4 µM (inactive); in the assay with SN12C it was 10.1 µM (inactive); with LOX IMVI, 3.32 µM (inactive); with SNB-19, 11.5 µM (inactive); with OVCAR-8 it was 3.67 µM (inactive). For the same molecule, the GI50 in the assay on SF-295 is 16.5 µM (inactive); in the assay with HCT-116, 6.98 µM (inactive).

Take `O=C1C=C[C@@]23CC1C(O)C[C@H]2C=Cc1ccccc13` (some centres undefined): the GI50 in the assay with CCRF-CEM was > 100 µM (inactive); in the assay with KM12, > 100 µM (inactive); with K562 it was 50.2 µM (inactive); in the assay with HL-60 it was > 100 µM (inactive); in the assay with NCI-H226, > 100 µM (inactive); with HOP-62, > 100 µM (inactive). Also, the GI50 in the assay on SW-620, with CAKI-1, in the assay with SN12C, in the assay on LOX IMVI, in the assay with SNB-19 and in the assay with OVCAR-8 was > 100 µM (inactive) in each case. For the same molecule, the GI50 with SF-295 and in the assay with HCT-116 was > 100 µM (inactive) each time.

For the molecule `O=[N+]([O-])c1cccc(C2=NOC(C3CCCCC3)C2)c1` (centres undefined), the GI50 in the assay on CCRF-CEM, in the assay on SK-MEL-28, in the assay with KM12, in the assay on K562, with HL-60 and in the assay on NCI-H226 was > 100 µM (inactive) throughout. Moreover, the GI50 is > 100 µM (inactive) in the assay on HOP-62; > 100 µM (inactive) in the assay on SW-620; > 100 µM (inactive) in the assay with SN12C; > 100 µM (inactive) with OVCAR-8; 94.6 µM (inactive) with SF-295; > 100 µM (inactive) with HCT-116.

Turning to `COc1cc([C@H]2c3cc4c(cc3[C@H](NCc3ccc(F)cc3)C3COC(=O)[C@H]32)OCO4)cc(OC)c1O` (some centres undefined), the GI50 in the assay with CCRF-CEM is 0.923 µM (active); with SK-MEL-28 it was 11 µM (inactive); in the assay with RXF 393, 8.04 µM (inactive); with KM12, 3.33 µM (inactive); in the assay on K562, 4.36 µM (inactive); in the assay on HL-60 it was 0.815 µM (active). Further, the GI50 in the assay with NCI-H226 is 2.03 µM (inactive); with HOP-62 it was 1.23 µM (inactive); with SW-620, 1.87 µM (inactive); with SN12C, 1.96 µM (inactive); with LOX IMVI, 2.64 µM (inactive); in the assay on SNB-19, 2.44 µM (inactive). In addition, the GI50 in the assay on OVCAR-8 was 4.3 µM (inactive); with SF-295, 2.25 µM (inactive); in the assay on HCT-116, 7.59 µM (inactive).

As for `O=C(c1ccccc1)N1CCN2CCN=C(c3ccccc3)C21c1ccccc1` (centres undefined), the GI50 with CCRF-CEM was 61.9 µM (inactive); in the assay with SK-MEL-28, > 100 µM (inactive); in the assay with RXF 393 it was 45.5 µM (inactive); with KM12, > 100 µM (inactive); in the assay with K562 it was 29.1 µM (inactive); in the assay with HL-60 it was 19.2 µM (inactive). Moreover, the GI50 in the assay on NCI-H226 is 19.5 µM (inactive); in the assay with HOP-62, > 100 µM (inactive); with SW-620, > 100 µM (inactive); in the assay with LOX IMVI it was > 100 µM (inactive); with SNB-19 it was 38 µM (inactive); with OVCAR-8, > 100 µM (inactive). Also, the GI50 is 52.1 µM (inactive) with SF-295 and 48.2 µM (inactive) in the assay on HCT-116.

`COc1c(C)cc(O)cc1C=O`: the GI50 in the assay on CCRF-CEM is > 100 µM (inactive); in the assay on SK-MEL-28 it was > 100 µM (inactive); in the assay on RXF 393, > 100 µM (inactive); in the assay with KM12, 93.3 µM (inactive); in the assay on K562, > 100 µM (inactive); in the assay on HL-60 it was > 100 µM (inactive). In addition, the GI50 in the assay with NCI-H226, with HOP-62, with SW-620, in the assay on CAKI-1, in the assay on SN12C and in the assay on LOX IMVI was > 100 µM (inactive) in each case. Besides, the GI50 with SNB-19, in the assay with OVCAR-8 and in the assay with SF-295 was > 100 µM (inactive) each time.

On to `O=P(CN1CCOCC1)(c1ccccc1)c1ccccc1`, for which the GI50 in the assay with CCRF-CEM, in the assay on SK-MEL-28, with RXF 393, in the assay on KM12, in the assay on K562 and with HL-60 was > 100 µM (inactive) in each case. In addition, the GI50 in the assay on HOP-62, in the assay with SW-620, in the assay with CAKI-1, in the assay on SN12C, with LOX IMVI and in the assay with SNB-19 was > 100 µM (inactive) in each case. For the same molecule, the GI50 in the assay on OVCAR-8, in the assay with SF-295 and with HCT-116 was > 100 µM (inactive) each time.

For `CCN(CC)C(=O)CNC(=O)OC(C)(C)C`, the GI50 in the assay on CCRF-CEM, in the assay on SK-MEL-28, with RXF 393, with KM12, in the assay with K562 and in the assay on HL-60 was > 100 µM (inactive) in each case. The GI50 in the assay on NCI-H226, with HOP-62, in the assay on SW-620, in the assay on CAKI-1, in the assay on SN12C and in the assay on LOX IMVI was > 100 µM (inactive) in each case. The GI50 with SNB-19, with OVCAR-8, in the assay on SF-295 and in the assay with HCT-116 was > 100 µM (inactive) each time.

As to `Cc1c2n(c(=O)[nH]c1=O)C1OC(CO)C(O2)C1N=[N+]=[N-]` (centres undefined), the GI50 in the assay with CCRF-CEM, in the assay with SK-MEL-28, with KM12, in the assay on K562, in the assay with HL-60 and in the assay on NCI-H226 was > 100 µM (inactive) in each case. Also, the GI50 in the assay on HOP-62, in the assay with SW-620, in the assay on CAKI-1, with SR, in the assay with SN12C and in the assay on LOX IMVI was > 100 µM (inactive) throughout. Besides, the GI50 with SNB-19, with OVCAR-8, in the assay with SF-295 and in the assay on HCT-116 was > 100 µM (inactive) each time.

On to `Cc1cnc2c(C)ccc([N+](=O)[O-])c2c1NCCCN(C)C`, for which the GI50 with CCRF-CEM, in the assay on SK-MEL-28, with KM12, in the assay on K562, in the assay with HL-60 and in the assay with NCI-H226 was > 100 µM (inactive) each time. Besides, the GI50 in the assay on HOP-62, in the assay on SW-620, in the assay on CAKI-1, with SR, in the assay on SN12C and with LOX IMVI was > 100 µM (inactive) in each case. Also, the GI50 in the assay on SNB-19, in the assay with OVCAR-8, with SF-295 and with HCT-116 was > 100 µM (inactive) throughout.

Take `CCCCCCCCOCC(COC(=O)CCCCCCC)OC(=O)CCCCCCC` (centres undefined): the GI50 is 57 µM (inactive) in the assay on CCRF-CEM; > 100 µM (inactive) in the assay on SK-MEL-28; > 100 µM (inactive) in the assay with K562; > 100 µM (inactive) in the assay with HL-60; > 100 µM (inactive) in the assay on NCI-H226; > 100 µM (inactive) in the assay with HOP-62. The GI50 in the assay on SW-620 was > 100 µM (inactive); in the assay on CAKI-1, > 100 µM (inactive); with SR, 53 µM (inactive); in the assay on SN12C, > 100 µM (inactive); in the assay with LOX IMVI, > 100 µM (inactive); in the assay on SNB-19 it was > 100 µM (inactive). In addition, the GI50 in the assay with OVCAR-8, with SF-295 and in the assay on HCT-116 was > 100 µM (inactive) each time.

Take `O=[N+]([O-])c1ccc(Sc2c3ccccc3nc3ccccc23)cc1`: the GI50 in the assay with CCRF-CEM was > 100 µM (inactive); in the assay with SK-MEL-28, > 100 µM (inactive); with RXF 393 it was > 100 µM (inactive); in the assay with KM12, > 100 µM (inactive); in the assay on K562, > 100 µM (inactive); with HL-60 it was 46.5 µM (inactive). Also, the GI50 in the assay with NCI-H226, in the assay with HOP-62, in the assay on SW-620, in the assay with CAKI-1, with SN12C and in the assay with LOX IMVI was > 100 µM (inactive) throughout. The GI50 in the assay with SNB-19, in the assay with OVCAR-8, with SF-295 and with HCT-116 was > 100 µM (inactive) throughout.

As to `Cc1cc(N(CCC#N)CCC#N)ccc1/N=N/c1ccc(Br)cc1`, the GI50 in the assay with CCRF-CEM is > 31.6 µM (inactive); with SK-MEL-28, > 100 µM (inactive); in the assay with RXF 393, 8.13 µM (inactive); in the assay on KM12, > 23.8 µM (inactive); in the assay with K562 it was 23.8 µM (inactive); in the assay on HL-60 it was > 100 µM (inactive). Moreover, the GI50 was 25.1 µM (inactive) in the assay with NCI-H226; 6.41 µM (inactive) in the assay with HOP-62; > 48.6 µM (inactive) with SW-620; 16.4 µM (inactive) in the assay on CAKI-1; > 36.8 µM (inactive) in the assay on SN12C; > 21.7 µM (inactive) in the assay on LOX IMVI. The GI50 is 16.1 µM (inactive) in the assay with SNB-19, > 37.6 µM (inactive) with OVCAR-8, 21.4 µM (inactive) with SF-295 and 36.8 µM (inactive) in the assay on HCT-116.

The record behind these values is ChEMBL document CHEMBL1201862, “PubChem BioAssay data set” (2004).
